This passage reports Activity results from ChEMBL document CHEMBL1132726, “Antioxidant activity and xanthine oxidase inhibition activity of reductic acid: ascorbic acid analogue” (Bioorg Med Chem Lett, 2000).

For data set [1], the target named is T1, Xanthine dehydrogenase/oxidase (Bos taurus, UniProt P80457). As to the kind of experiment: Compound was tested for the inhibition of xanthine oxidase; Active.
Data set [2] addresses T1, Xanthine dehydrogenase/oxidase. The data set is described as follows: Compound was tested for the inhibition of xanthine oxidase; Inactive.

T1 sequence (P80457 whole entry): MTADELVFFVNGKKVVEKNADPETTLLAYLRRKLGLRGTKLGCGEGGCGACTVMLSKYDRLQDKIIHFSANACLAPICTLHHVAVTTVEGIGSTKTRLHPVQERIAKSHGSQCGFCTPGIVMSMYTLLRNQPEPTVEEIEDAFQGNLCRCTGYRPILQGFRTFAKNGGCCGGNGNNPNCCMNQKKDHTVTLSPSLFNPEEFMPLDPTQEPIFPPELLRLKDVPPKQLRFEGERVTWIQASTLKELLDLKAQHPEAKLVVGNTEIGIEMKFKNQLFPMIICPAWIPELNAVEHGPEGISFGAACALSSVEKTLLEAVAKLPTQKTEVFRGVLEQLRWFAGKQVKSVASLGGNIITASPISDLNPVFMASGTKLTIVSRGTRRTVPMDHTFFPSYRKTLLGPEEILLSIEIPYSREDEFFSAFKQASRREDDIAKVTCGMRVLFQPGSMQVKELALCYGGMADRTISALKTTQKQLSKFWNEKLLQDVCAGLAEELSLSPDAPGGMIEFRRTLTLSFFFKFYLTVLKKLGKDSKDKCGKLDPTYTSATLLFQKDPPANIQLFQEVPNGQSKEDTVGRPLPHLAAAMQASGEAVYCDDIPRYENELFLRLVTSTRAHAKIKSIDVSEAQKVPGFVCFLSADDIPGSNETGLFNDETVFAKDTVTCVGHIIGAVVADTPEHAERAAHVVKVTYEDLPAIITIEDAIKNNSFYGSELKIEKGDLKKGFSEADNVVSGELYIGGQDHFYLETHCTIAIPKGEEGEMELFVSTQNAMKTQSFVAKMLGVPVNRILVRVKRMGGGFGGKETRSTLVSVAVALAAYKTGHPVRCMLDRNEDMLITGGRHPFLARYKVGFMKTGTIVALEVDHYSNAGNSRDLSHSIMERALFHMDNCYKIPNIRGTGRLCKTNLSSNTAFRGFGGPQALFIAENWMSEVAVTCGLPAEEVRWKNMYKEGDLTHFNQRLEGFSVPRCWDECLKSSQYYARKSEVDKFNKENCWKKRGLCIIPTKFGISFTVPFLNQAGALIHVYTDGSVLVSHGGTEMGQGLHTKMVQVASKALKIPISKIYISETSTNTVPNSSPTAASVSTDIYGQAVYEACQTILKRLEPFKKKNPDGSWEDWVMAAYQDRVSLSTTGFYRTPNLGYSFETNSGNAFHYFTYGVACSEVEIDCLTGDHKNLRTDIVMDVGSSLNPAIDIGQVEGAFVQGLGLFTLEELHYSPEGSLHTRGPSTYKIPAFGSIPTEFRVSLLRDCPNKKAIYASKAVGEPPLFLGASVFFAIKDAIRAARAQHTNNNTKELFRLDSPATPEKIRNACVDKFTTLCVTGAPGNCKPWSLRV

With `O=C1CCC(O)=C1O`, the result in data set [1] was Active.
In the case of `O=C1COC(O)=C1O`, in data set [2], the Activity entry was “Not Active”.
Same read-out and setting: the value for `O=C1O[C@H]([C@@H](O)CO)C(O)=C1O` [ASCORBIC ACID] was “Not Active”.
